According to PMC6014988, “Precision therapeutic targeting of human cancer cell motility” (Nature Communications, 2018):

Legend:
[1] = Three-day MTT cell growth inhibition assay, PC3M; format: cell-based, human; settings: human, PC3M cells; PC3M; 3 days
Excerpt: (§1) Assays were in replicates of N = 3, and were repeated. […]
(§2) Values are the mean±SEM of a single experiment, in
(§3) replicates of N=4, repeated at least once (also N=4).
(§4) Supplementary Figure 1b. Synthetic round #2.

[2] = system: PC3M; experiment: Three-day MTT cell growth inhibition assay, PC3M; format: cell-based, human
Excerpt: as §1, §2, §3, §4

[3] = system: PC3-M cells; experiment: Boyden chamber cell invasion assay, PC3-M cells; format: cell-based, human
Protocol: Boyden chamber cell invasion assays were performed as previously described by us[30], using either denatured collagen (BD Biosciences) or type IV human collagen (BD Biosciences), with all experiments repeated, each in N = 4 replicates. In some experiments, as indicated, cells were transfected with an expression plasmid, using Lipofectamine 2000™ (Invitrogen), or with siRNA, using DharmaFect Duo (Thermo Scientific) and co-transfected with β-Galactosidase (Plasmid pCMV•SPORT-βgal; Life Technology). […]
For cell invasion, PC3-M cells […]
were treated with 10 µM compound for a total of 3 days, and cell invasion assays were run at the end of the 3 day period, in the presence of compound. Values are the mean±SEM of three separate experiments, each run in replicates of N=3. […]
assays were performed with PC3-M cells. Values are the mean±SEM of a single experiment, in replicates of N=4, repeated at least once (also N=4). […]

[4] = target: T1, CDC37/HSP90β heterocomplex (Homo sapiens, UniProt P08238+Q16543); experiment: DARTS assay with CDC37 and HSP90β combined; format: binding
T1 construct: made in house; host or cells: E. coli (Rosetta BL-21 for HSP90β, BL-21 DE-3 for CDC37)
T1 sequence (P08238 whole entry): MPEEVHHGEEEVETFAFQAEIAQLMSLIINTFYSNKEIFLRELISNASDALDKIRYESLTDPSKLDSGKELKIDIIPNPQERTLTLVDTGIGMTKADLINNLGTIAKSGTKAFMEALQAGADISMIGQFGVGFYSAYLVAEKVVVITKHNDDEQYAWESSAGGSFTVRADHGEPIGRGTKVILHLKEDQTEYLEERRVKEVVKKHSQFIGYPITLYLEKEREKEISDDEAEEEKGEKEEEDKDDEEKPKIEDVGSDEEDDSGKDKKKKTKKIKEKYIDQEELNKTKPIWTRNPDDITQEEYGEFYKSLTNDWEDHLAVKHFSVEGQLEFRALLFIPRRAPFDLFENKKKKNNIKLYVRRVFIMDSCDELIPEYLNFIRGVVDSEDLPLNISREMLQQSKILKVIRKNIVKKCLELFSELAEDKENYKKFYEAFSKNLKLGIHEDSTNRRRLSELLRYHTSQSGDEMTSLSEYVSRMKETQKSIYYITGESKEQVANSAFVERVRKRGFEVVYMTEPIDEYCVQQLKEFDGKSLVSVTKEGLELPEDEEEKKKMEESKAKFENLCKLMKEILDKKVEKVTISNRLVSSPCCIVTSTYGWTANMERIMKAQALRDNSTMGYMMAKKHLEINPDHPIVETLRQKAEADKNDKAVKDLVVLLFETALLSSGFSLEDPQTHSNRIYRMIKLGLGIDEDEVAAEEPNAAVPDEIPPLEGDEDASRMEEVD
T1 sequence (Q16543 whole entry): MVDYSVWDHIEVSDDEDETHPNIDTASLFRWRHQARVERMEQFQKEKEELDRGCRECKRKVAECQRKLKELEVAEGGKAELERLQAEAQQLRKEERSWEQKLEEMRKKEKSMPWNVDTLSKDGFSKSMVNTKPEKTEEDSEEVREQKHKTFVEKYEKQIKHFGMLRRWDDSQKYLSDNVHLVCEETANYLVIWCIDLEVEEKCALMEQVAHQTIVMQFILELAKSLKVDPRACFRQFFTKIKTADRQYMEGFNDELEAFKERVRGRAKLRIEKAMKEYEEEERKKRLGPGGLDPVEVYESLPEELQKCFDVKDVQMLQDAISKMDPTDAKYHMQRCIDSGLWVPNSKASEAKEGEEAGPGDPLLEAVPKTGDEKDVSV
Protocol: Fig. 5 KBU2046 stabilizes CDC37/HSP90β heterocomplexes. a KBU2046 stabilizes HSP90β/CDC37 heterocomplexes in a DARTS assay. Equimolar amounts of HSP90β and CDC37 protein were pre-incubated with KBU2046, and resultant thermolysin reaction products were detected by silver stain following SDS-PAGE. […] Atoms within 5 angstroms of KBU2046 are colored by element (carbon, green; nitrogen, blue; oxygen, red). d Potential surface of the whole CDC37/HSP90β dimer (color code: green—HSP90β; gray—CDC37; cyan—Arg167 from CDC37 bisecting the larger pocket and creating a new cleft into which KBU2046 binds)
Fluorescent thermal shift, isothermal titration calorimetry, and biolayer interferometry assays[46] were all performed as described by us using MEK4EE (37-399, S257E, T261E) cloned into pMCSG7 and KRX Competent E. coli cells (Promega Inc.) and above denoted full-length HSP90B and CDC37 vectors and Rosetta BL-21 and BL-21 DE-3 competent E. coli cells, respectively. DARTS assays were conducted as described, using equimolar amounts of CDC37 and HSP90β, thermolysin digestion, and silver stain visualization (ProteoSilver Silver Stain Kit, Sigma-Aldrich).

[5] = system: PC3-M cells; experiment: Cell invasion of PC3-M cells with altered HSP90β; format: cell-based, human
Protocol: Fig. 4 KBU2046 decreases phosphorylation of HSP90β. a Probing for KBU2046-induced changes in protein phosphorylation. PC3-M or PC3 cells were pre-treated with 10 µM KBU2046 for 3 days, then with ±TGFβ and the resultant cell lysate probed for changes in protein phosphorylation with the KinomeView® assay. The depicted western blot utilizes KinomeView® phospho-motif antibody, BL4176; the blue arrow denotes an 83 kDa band whose phosphorylation is inhibited by KBU2046 (see Supplementary Fig. 10 for complete KinomeView® assay screening data). b Proteomic analysis. PC3 cells were pre-treated with KBU2046 or vehicle, then with TGFβ, proteins from the resultant cell lysate were immunoprecipitated with BL4176, and HSP90β was identified by LC-MS/MS analysis (see Supplementary Fig. 12 for expanded proteomic assay data). The phospho-motif recognized by the antibody is underlined; S*—denotes Ser226, whose phosphorylation is decreased by KBU2046. c, d The phospho-mimetic changes in HSP90β Ser^226 structure regulate human PCa cell invasion and KBU2046 efficacy. PC3-M cells were transfected with S226A-, S226D-, or WT-HSP90β, or empty vector (VC), treated with KBU2046 or vehicle, and cell invasion measured. Values are the mean ± SEM of a representative experiment of multiple experiments (all in replicates of N = 3); *denotes t-test P value <0.05 between bracketed conditions, or compared to VC […]
Boyden chamber cell invasion assays were performed as previously described by us[30], using either denatured collagen (BD Biosciences) or type IV human collagen (BD Biosciences), with all experiments repeated, each in N = 4 replicates. In some experiments, as indicated, cells were transfected with an expression plasmid, using Lipofectamine 2000™ (Invitrogen), or with siRNA, using DharmaFect Duo (Thermo Scientific) and co-transfected with β-Galactosidase (Plasmid pCMV•SPORT-βgal; Life Technology).
Supplementary Figure 13. Changes in HSP90β Ser226 structure as well as HSP90β expression regulate PCa cell invasion and KBU2046 efficacy. (a) Levels of HSP90β expression after transfection of cells. In manuscript Figs 4c and d, PC3-M cells were transfected with S226A-, S226D-, or WT-HSP90β, or empty vector (VC) and resultant effects upon cell invasion and KBU2046 efficacy measured. Depicted above are associated Western blots probing for HSP90β, FLAG (transfected HSP90β was FLAG-tagged) and GAPDH. (b-d) Knockdown of HSP90β decreases cell invasion and abrogates KBU2046 efficacy. PC3-M cells were transfected with siRNA to HSP90β (siHSP90b) or non-targeting siRNA (siCO). (b) The level of HSP90β (HSP90b) and HSP90α (HSP90a) transcript levels were measured by qRT/PCR, and expressed relative to that of GAPDH. (c) The level of HSP90β protein expression was measured by Western blot. (d) Cells were treated with KBU2046 (46) or vehicle control, and cell invasion measured. Values are the mean±SEM of a representative experiment of multiple experiments (all in replicates of N=3). *denotes t-test P value </= 0.05 compared to siCO.

O=C1c2ccccc2OCC1c1ccc(F)cc1 (racemic) [KBU2046, (±)-3(4-fluorophenyl)chroman-4-one] showed a viability at 3 days, 50 µM [1] of 100%, an IC20 ([2]; Homo sapiens, PC-3M, 72 h, PC3M, concentration inhibiting cell growth by 20% after 3 days) greater than 50 µM and an IC50 ([2]; Homo sapiens, PC-3M, 72 h, PC3M, concentration inhibiting cell growth by 50% after 3 days) greater than 50 µM. For the same compound, the cell growth inhibition ([2]; PC3-M cells, three day MTT, SAR rounds) was “no growth inhibitory”, the “anti-invasion efficacy under TGFβ stimulation” value ([3]; PC3-M cells pretreated, then ± TGFβ) was “retains efficacy” and the anti-invasion activity ([3]; PC3-M cells, 10 µM compound, 3 days) was “anti-invasive efficacy at least equal”. The “concentration at which effects were evident” value ([4]; CDC37 band increased, HSP90β degradation product decreased) was 10 nM, the “protection from thermolysin digestion” value ([4]; equimolar HSP90β and CDC37) was “protected both proteins from digestion” and the cell invasion ([5]; (S226A)-HSP90β transfected cells) was “does not further inhibit cell invasion”. For the same compound, the cell invasion ([5]; (S226D)-HSP90β transfected cells) was “did not significantly inhibit cell invasion”, the cell invasion ([5]; VC and WT-HSP90β cells) was “significantly inhibited invasion” and the cell invasion ([5]; VC cells) was “significantly inhibits invasion”. For the same compound, the anti-invasion efficacy ([5]; siRNA-mediated HSP90β knockdown) was “abrogated KBU2046 efficacy”.
